Laboratory results taken from patent US8680012B2, “4-phenyl-pyrane-3,5-diones,4-phenyl-thiopyrane-3,6-diones and cyclohexanetriones as novel herbicides” (Syngenta Crop Protection LLC, priority 2006, dated 2014).

Tests used:
Assay type in all cases: in vivo
[1] = test system: Alopecurus myosuroides (ALOMY); assay: Example B pre-emergence herbicidal activity, glasshouse pot test; settings: 312 h, rate 250 g/ha, evaluated after 13 days, read-out: Pre-emergence activity ALOMY (100=total damage to plant; 0=no damage to plant)
Protocol: (§1) Seeds of a variety of test species were sown in standard soil in pots. After cultivation for one day (pre-emergence) or after 8 days cultivation (post-emergence) under controlled conditions in a glasshouse (at 24/16° C., day/night; 14 hours light; 65% humidity), the plants were sprayed with an aqueous spray solution derived from the formulation of the technical active ingredient in acetone/water (50:50) solution containing 0.5% Tween 20 (polyoxyethelyene sorbitan monolaurate, CAS RN 9005-64-5). The test plants were then grown in a glasshouse under controlled conditions in a glasshouse (at 24/16° C., day/night; 14 hours light; 65% humidity) and watered twice daily. After 13 days for pre and post-emergence, the test was evaluated (100=total damage to plant; 0=no damage to plant).
(§2) Alopecurus myosuroides (ALOMY), Avena fatua (AVEFA), Setaria faberi (SETFA), Echinochloa crus-galli (ECHCG), Solanum nigrum (SOLNI) and Amaranthus retroflexus (AMARE)

[2] = test system: Amaranthus retroflexus (AMARE); assay: as above; settings: 312 h, rate 250 g/ha, evaluated after 13 days, read-out: Pre-emergence activity AMARE (100=total damage to plant; 0=no damage to plant)
Protocol: as §1, §2

[3] = test system: Echinochloa crus-galli (ECHCG); assay: as above; settings: 312 h, rate 250 g/ha, evaluated after 13 days, read-out: Pre-emergence activity ECHCG (100=total damage to plant; 0=no damage to plant)
Protocol: as §1, §2

[4] = test system: Setaria faberi (SETFA); assay: as above; settings: 312 h, rate 250 g/ha, evaluated after 13 days, read-out: Pre-emergence activity SETFA (100=total damage to plant; 0=no damage to plant)
Protocol: as §1, §2

[5] = test system: Avena fatua (AVEFA); assay: as above; settings: 312 h, rate 250 g/ha, evaluated after 13 days, read-out: Pre-emergence activity AVEFA (100=total damage to plant; 0=no damage to plant)
Protocol: as §1, §2

[6] = test system: Alopecurus myosuroides (ALOMY); assay: Example B post-emergence herbicidal activity, glasshouse pot test; settings: 312 h, rate 250 g/ha, evaluated after 13 days, read-out: Post-emergence activity ALOMY (100=total damage to plant; 0=no damage to plant)
Protocol: as §1, §2

[7] = test system: Amaranthus retroflexus (AMARE); assay: as above; settings: 312 h, rate 250 g/ha, evaluated after 13 days, read-out: Post-emergence activity AMARE (100=total damage to plant; 0=no damage to plant)
Protocol: as §1, §2

[8] = test system: Echinochloa crus-galli (ECHCG); assay: as above; settings: 312 h, rate 250 g/ha, evaluated after 13 days, read-out: Post-emergence activity ECHCG (100=total damage to plant; 0=no damage to plant)
Protocol: as §1, §2

[9] = test system: Setaria faberi (SETFA); assay: as above; settings: 312 h, rate 250 g/ha, evaluated after 13 days, read-out: Post-emergence activity SETFA (100=total damage to plant; 0=no damage to plant)
Protocol: as §1, §2

[10] = test system: Avena fatua (AVEFA); assay: as above; settings: 312 h, rate 250 g/ha, evaluated after 13 days, read-out: Post-emergence activity AVEFA (100=total damage to plant; 0=no damage to plant)
Protocol: as §1, §2

Row | Structure (SMILES) | pest or weed control at 250 g/ha [1] [%] | pest or weed control at 250 g/ha [2] [%] | pest or weed control at 250 g/ha [3] [%] | pest or weed control at 250 g/ha [4] [%] | pest or weed control at 250 g/ha [5] [%] | pest or weed control at 250 g/ha [6] [%] | pest or weed control at 250 g/ha [7] [%] | pest or weed control at 250 g/ha [8] [%] | pest or weed control at 250 g/ha [9] [%] | pest or weed control at 250 g/ha [10] [%]
1 | CCc1ccc(-c2ccc(Cl)cc2F)cc1C1=C(O)C(C)(C)OC(C)(C)C1=O [Compound A-66] | 0 | 0 | 60 | 50 | 40 | 20 | 10 | 100 | 100 | 30
2 | CCc1ccc(-c2ccc(Cl)c(Cl)c2)cc1C1=C(O)[C@H]2CC[C@H](O2)C1=O [Compound A-132] | 0 | 0 | 0 | 0 | 0 | 20 | 0 | 70 | 90 | 30
3 | CCc1ccc(-c2ccc(Cl)nc2Cl)cc1C1=C(O)C(C)(C)OC(C)(C)C1=O [Compound A-75] | 30 | 0 | 90 | 90 | 30 | 90 | 0 | 100 | 100 | 90
4 | CCc1ccc(-c2ccc(Cl)cc2C)cc1C1=C(O)C(C)(C)OC(C)(C)C1=O [Compound A-64] | 0 | 0 | 40 | 40 | 20 | 20 | 20 | 100 | 90 | 0
5 | CCc1ccc(-c2ccc(Cl)c(F)c2)cc1C1=C(O)[C@@]2(C)CC[C@H](O2)C1=O (single isomer, unassigned) [Compound A-125] | 70 | 0 | 90 | 100 | 80 | 100 | 0 | 100 | 100 | 90
6 | CCc1ccc(-c2cc(Cl)c(Cl)c(Cl)c2)cc1C1=C(O)C(C)(C)OC(C)(C)C1=O [Compound A-139] | 0 | 0 | 30 | 70 | 0 | 30 | 50 | 100 | 80 | 50
7 | Cc1cc(C)c(-c2ccc(Cl)cc2F)c(C)c1C1=C(O)C(C)(C)OC(C)(C)C1=O [Compound A-102] | 30 | 0 | 90 | 90 | 0 | 20 | 0 | 70 | 30 | 0
8 | C#Cc1ccc(-c2ccc(CC)c(C3=C(O)C(C)(C)OC(C)(C)C3=O)c2)cc1 [Compound A-98] | 0 | 50 | 90 | 90 | 0 | 50 | 30 | 100 | 100 | 70
